Laboratory results published in publication PMC12027554, “Inhibition of ABCG2 by SCO-101 Enhances Chemotherapy Efficacy in Cancer” (International Journal of Molecular Sciences, 2025).
Read-outs that look alike come from different tables or passages of the source.

Key:
MRP2/ABCC2 = biological target: T1, MRP2/ABCC2 (Homo sapiens, UniProt Q92887); assay: Efflux transporter inhibition, vesicular uptake into inside-out membrane vesicles (ABCC2); assay type: biochemical; settings: 100 μM 5(6)-carboxy-2′,7′-dichlorofluorescein
T1 construct: purchased SOLVO biotechnology, Budapest, Hungary
T1 sequence (Q92887 whole entry): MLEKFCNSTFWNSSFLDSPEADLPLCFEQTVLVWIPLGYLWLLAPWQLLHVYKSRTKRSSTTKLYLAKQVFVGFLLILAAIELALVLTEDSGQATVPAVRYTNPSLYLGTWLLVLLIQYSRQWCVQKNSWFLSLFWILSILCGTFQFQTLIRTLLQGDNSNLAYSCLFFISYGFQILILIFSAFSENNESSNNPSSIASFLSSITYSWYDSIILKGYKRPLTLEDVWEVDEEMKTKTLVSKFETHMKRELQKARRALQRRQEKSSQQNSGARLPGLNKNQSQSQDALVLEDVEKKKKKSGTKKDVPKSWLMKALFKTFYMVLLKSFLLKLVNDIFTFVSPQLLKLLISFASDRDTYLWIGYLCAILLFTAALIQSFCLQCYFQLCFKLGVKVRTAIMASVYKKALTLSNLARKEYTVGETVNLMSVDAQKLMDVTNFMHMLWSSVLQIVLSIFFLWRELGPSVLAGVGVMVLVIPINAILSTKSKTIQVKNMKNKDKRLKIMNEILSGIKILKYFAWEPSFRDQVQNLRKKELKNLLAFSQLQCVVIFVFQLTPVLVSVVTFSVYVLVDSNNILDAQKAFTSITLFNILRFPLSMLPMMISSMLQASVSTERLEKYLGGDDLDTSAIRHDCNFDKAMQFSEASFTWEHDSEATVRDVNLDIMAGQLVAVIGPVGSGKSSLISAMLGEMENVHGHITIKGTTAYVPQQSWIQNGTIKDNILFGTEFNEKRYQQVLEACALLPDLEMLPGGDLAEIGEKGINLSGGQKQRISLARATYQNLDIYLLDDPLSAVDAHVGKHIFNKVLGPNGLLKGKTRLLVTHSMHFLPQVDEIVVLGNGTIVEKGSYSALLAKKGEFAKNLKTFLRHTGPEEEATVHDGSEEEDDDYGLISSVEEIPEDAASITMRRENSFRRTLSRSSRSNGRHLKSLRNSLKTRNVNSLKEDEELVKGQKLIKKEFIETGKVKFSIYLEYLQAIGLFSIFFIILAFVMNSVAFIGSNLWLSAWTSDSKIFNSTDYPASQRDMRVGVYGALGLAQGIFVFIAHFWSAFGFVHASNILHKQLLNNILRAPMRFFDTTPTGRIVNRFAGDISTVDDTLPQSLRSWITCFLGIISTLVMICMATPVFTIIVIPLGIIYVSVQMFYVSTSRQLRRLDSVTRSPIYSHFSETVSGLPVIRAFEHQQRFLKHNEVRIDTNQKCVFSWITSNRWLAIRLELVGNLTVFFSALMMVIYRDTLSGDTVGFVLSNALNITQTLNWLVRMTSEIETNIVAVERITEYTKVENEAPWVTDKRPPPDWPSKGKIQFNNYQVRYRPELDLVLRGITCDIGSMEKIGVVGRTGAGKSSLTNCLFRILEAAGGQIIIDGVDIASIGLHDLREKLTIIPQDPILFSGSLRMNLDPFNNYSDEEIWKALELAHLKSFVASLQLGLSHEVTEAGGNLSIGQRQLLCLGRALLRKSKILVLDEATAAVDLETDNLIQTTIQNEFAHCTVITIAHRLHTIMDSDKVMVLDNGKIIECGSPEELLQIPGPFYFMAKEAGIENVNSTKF
Protocol: Efflux transporter inhibition was evaluated by measuring vesicular uptake into inside-out membrane vesicles (SOLVO biotechnology, Budapest, Hungary) expressing a single human ABC transporter (0.67 mg/mL ABCB1; 0.67 mg/mL ABCC2; 0.33 mg/mL ABCG2 membrane protein) of a probe substrate (1 μM N-methyl-quinidine for ABCB1; 100 μM 5(6)-carboxy-2′,7′-dichlorofluorescein for ABCC2; 1 μM Eestrone-3-sulfate for ABCG2) in the presence of SCO-101 with and without ATP (4 mM) in 96-well plate format. Control solvent and control inhibitors (4–60 μM verapamil for […]; 1–15 μM sulfasalazine for ABCG2; 5.5–150 μM benzbromarone for ABCC2) were incubated in parallel. Vesicular uptake was conducted at 37 °C in incubation buffer (10 mM Tris-HCl, pH 7.4, 10 mM MgCl2, 250 mM sucrose) and terminated after 1 min (ABCB1 and ABCG2) or 5 min (ABCC2) by adding ice-cold washing buffer (10 mM Tris-HCl, pH 7.4, 100 mM NaCl, 250 mM sucrose). […] Probe quantification was conducted using LC-MS/MS peak areas (solvent control with ATP − AMP = 100%). […] The remaining transporter activity % was calculated according to the formula below, and fitting was performed using GraphPad Prism: A%=AATP,sample−AAMP,sample/AATP,solvent−AAMP,solvent

HT29PAR cells = assay: Cell viability assay (MTT / CCK-8), drug-sensitive HT29; assay type: cell-based, human; settings: Homo sapiens, HT-29, 72 h
Protocol: Cells were seeded at a density of 0.2–1 × 10^4 cells/well into 96-well plates. One day after seeding, treatments were performed in triplicate for 72 h, or as otherwise indicated in the relevant panel/figure legend and kept at 37 °C/5% CO2. Growth medium alone (“untreated” cells) or DMSO was used as a control.
For MTT assays, media were replaced at the final timepoint with 100 μL of 1:10 MTT reagent (0.5 mg/mL in PBS) diluted in growth medium, and plates were incubated for 3 h. A total of 100 μL/well of stop buffer (50 g Sodium Dodecyl Sulfate, 245 mL ddH2O, 5 mL 1N HCl) was added and plates incubated for 24 h to let colored formazan crystals develop. Optical densities (ODs) were measured with a PowerWave^TM Microplate spectrophotometer (BioTek, Winooski, VT, USA) at 570 nm and 670 nm (background).
For CCK-8 assays, 100 μL of 1:10 CCK-8 reagent (pevonedistat-treated HT29 cells) diluted in medium was added to each well and cells incubated for 1–2 h at 37 °C. OD values were measured at 450 nm with a VersaMax microplate spectrophotometer (Molecular Devices, San Jose, CA, USA).
Background values were subtracted prior to further analysis. The percentage of cell viability was expressed as relative values versus untreated cells as determined by the various assays. EC50/IC50 values were calculated using GraphPad Prism (v10.4.1) and the in-built non-linear regression [log (inhibitor) vs. response—variable slope (four parameters)] calculation. For determination of synergy scores, the online tool SynergyFinder+ (https://synergyfinder.org access date 15 February 2025) was employed following 4 × 4- or 6 × 6-matrix dose-escalation cell viability experiments. Doses of drugs are indicated in the relevant figure legends and ranges have been chosen based on the response of cells to single-drug dose-dependent experiments. Synergy scores were calculated using the ZIP model, which takes the advantages of both the Loewe additivity and the Bliss independence models, aiming at a systematic assessment of various types of drug interaction patterns that may arise in a high-throughput drug combination screening.

human UGT1A1 enzyme = biological target: T2, human UGT1A1 enzyme (Homo sapiens, UniProt P22309); assay: Inhibition of UGT1A1 glucuronidation activity (recombinant enzyme); assay type: biochemical; settings: SCO-101 0.003–1 µM
T2 sequence (P22309 26-533): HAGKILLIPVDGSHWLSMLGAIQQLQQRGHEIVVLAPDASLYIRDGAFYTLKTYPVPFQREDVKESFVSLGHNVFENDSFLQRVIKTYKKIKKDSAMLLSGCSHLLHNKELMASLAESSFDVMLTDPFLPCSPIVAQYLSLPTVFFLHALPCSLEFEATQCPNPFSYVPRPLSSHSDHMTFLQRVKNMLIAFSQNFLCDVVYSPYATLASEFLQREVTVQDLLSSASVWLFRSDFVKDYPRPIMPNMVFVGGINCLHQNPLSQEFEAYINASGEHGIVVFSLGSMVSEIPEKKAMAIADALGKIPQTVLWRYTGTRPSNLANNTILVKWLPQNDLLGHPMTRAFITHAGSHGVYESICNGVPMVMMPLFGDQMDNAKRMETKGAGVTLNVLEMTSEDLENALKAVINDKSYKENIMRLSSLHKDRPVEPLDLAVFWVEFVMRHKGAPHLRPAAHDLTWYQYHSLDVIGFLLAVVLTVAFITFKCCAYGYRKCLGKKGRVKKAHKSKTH
Protocol: The inhibition potency of SCO-101 towards the human UGT1A1 enzyme was studied using recombinant human enzymes and the two different probe substrates β-estradiol (10 μM) and SN-38 (10 μM). Additionally, a positive control inhibitor at a single concentration (10 μM ketoconazole) and a solvent control were employed. Reactions were conducted at 37 °C after a 10 min pre-incubation at 37 °C in incubation buffer (10 mM Tris-HCl, pH 7.4, 5 mM MgCl2, […] alamethicin) and started by adding 5 mM UDPGA. Reactions were terminated after 30 min by adding an equal volume of ice-cold acetonitrile with 1% formic acid and 0.5 μM caffeine. The level of the UGT-specific probe glucuronidation was monitored by LC/MS-MS, and inhibition was observed as a reduced level of metabolite formation of the substrate.

IC50 (MRP2/ABCC2): 24100 nM | IC50 (HT29PAR cells): > 25000 nM | IC50 (human UGT1A1 enzyme; substrate SN-38 10 μM, read-out: IC50, UGT1A1 glucuronidation of SN-38): 100 nM | IC50 (human UGT1A1 enzyme; substrate β-estradiol 10 μM, read-out: IC50, UGT1A1 glucuronidation of β-estradiol): 280 nM
SMILES: O=C(Nc1cc(C(F)(F)F)cc(C(F)(F)F)c1)Nc1ccc(Br)cc1-c1nnn[nH]1 [SCO-101, N-[4-Bromo-2-(1H-1,2,3,4-tetrazol-5-yl)phenyl]-N′-[3,5-bis(trifluoromethyl)phenyl]urea]
